Biological target: T1, Mdm4 (Homo sapiens, UniProt O15151)
T1 sequence (O15151 1-490): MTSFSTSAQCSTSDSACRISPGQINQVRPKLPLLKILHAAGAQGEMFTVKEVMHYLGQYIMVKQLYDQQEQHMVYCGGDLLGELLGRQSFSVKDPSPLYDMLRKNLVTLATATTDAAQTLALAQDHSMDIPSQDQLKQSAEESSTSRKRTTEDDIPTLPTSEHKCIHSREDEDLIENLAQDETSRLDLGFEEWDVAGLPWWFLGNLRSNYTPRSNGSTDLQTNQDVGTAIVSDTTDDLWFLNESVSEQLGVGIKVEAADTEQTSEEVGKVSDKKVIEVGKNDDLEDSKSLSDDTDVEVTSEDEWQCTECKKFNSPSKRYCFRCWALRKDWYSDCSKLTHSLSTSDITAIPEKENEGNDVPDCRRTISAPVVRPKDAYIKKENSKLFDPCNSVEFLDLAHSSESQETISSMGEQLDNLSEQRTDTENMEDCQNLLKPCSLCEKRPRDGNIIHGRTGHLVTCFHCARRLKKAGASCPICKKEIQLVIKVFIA
Test: fluorescence polarization assay, p53-Mdm4
Assay type: binding
Conditions: FP, resynthesized and purified by flash chromatography

Ki: 5.5 µM
SMILES: O=C(CN(Cc1ccc(Cl)cc1)C(=O)c1cc2ccccc2[nH]1)NC1CCCCC1 [Compound B1, N-(4-Chlorobenzyl)-N-(2-(cyclohexylamino)-2-oxoethyl)-1H-indole-2-carboxamide]
